From US20230255953A1, “USE OF ROLUPERIDONE IN PREVENTING RELAPSE IN SCHIZOPHRENIA PATIENTS” (Minerva Neurosciences, Inc., priority 2022, published 2023)

Legend:
Assay type in all cases: in vivo, human
[1] = tested on: patients with negative symptoms of schizophrenia; experiment: Study #1 (MIN-101C03): safety and tolerability (TEAEs, QTcF); conditions: for Patients with QTcF prolongation >500 msec and change from Baseline in QTcF >60 msec: DB period
From the text: Phase 2b Study #1 (also referred to herein as “MIN-101C03”) was a Phase 2b, double-blind (“DB”), placebo-controlled, randomized, multicenter 12-week study to evaluate the efficacy, safety, and tolerability of Roluperidone in patients ≥18 years to ≤60 years with negative symptoms of schizophrenia, followed by a 24-week open-label (“OL”) extension. The primary objective of the study was to evaluate the efficacy of Roluperidone compared to placebo in improving the negative symptoms of schizophrenia as measured by the change from Baseline in the PANSS negative factor score of the PSM (“PANSS PSM”) over 12 weeks of treatment.
The study consisted of a pretreatment screening period of up to 28 days (including washout), a 12-week, DB, placebo-controlled period, and a 24-week OL period. Eligible patients (who were symptomatically stable for at least 3 months and had scores of at least 20 on the PANSS negative subscale score) were randomized in a 1:1:1 ratio to receive oral Roluperidone (a modified-release, “MR”, formulation) 32 mg QD, Roluperidone 64 mg QD, or placebo for 12 weeks. […] During the 24-week, OL treatment extension period, patients who were initially randomized to Roluperidone 32 mg or 64 mg continued on the same dose, while patients who were initially randomized to placebo crossed over to Roluperidone 32 mg or 64 mg in a 1:1 ratio.
Clinically significant QTcF prolongation >500 msec and change from Baseline in QTcF>60 msec were reported in 2 patients of the 64 mg Roluperidone group, and in no patients in the 32 mg Roluperidone group or in the placebo group during the DB period of the study. The mean changes across all vital sign parameters were small from Baseline to the respective study visits in the DB period of the study.

[2] = tested on: patients with negative symptoms of schizophrenia; experiment: Study #2 (MIN-101C07): safety and tolerability (TEAEs, QT); conditions: for Incidence of TEAEs: DB period
From the text: Study #2 (also referred to as “MIN101C07”) was a Phase 3, randomized, DB, placebo-controlled, parallel-group 12-week study to evaluate the efficacy and safety of Roluperidone in patients ≥18 years to ≤55 years with negative symptoms of schizophrenia, followed by a 40-week OL extension. The study consisted of a pretreatment screening period of up to 28 days (including an antipsychotic medication washout period), a 12-week, DB, placebo-controlled period, and a 40-week OL period. Eligible patients (with moderate to severe negative symptoms of schizophrenia and stable positive symptoms but without severe symptoms of suspiciousness, agitation, hostility, uncooperativeness, or poor impulse control) were randomized 1:1:1 to receive Roluperidone 32 mg QD, Roluperidone 64 mg QD (GR01/B formulation, see U.S. Pat. No. 11,464,744), or placebo, orally, for 12 weeks. […] During the 40-week OL treatment extension, patients who were initially randomized to Roluperidone 32 mg or 64 mg continued treatment with the same dose, while patients who were initially randomized to placebo crossed over to Roluperidone 32 mg or 64 mg in a 1:1 ratio.
The incidence of TEAEs was slightly higher in the Roluperidone groups than in the placebo group during the DB period (42% in the 32 mg Roluperidone group, 37% in the 64 mg Roluperidone group, and 33% in the placebo group). The majority of TEAEs reported were in the System Organ Class (SOC) psychiatric disorders. The most commonly reported TEAEs were insomnia, schizophrenia, anxiety, agitation, and headache. […] In total, 6 patients met stopping criteria due to QT prolongations, and 4 of these 6 patients were discontinued from the study due to such prolongations. The remaining 2 patients were discontinued for other reasons prior to confirming their QT prolongations.

[3] = tested on: patients with negative symptoms of schizophrenia; experiment: Integrated analysis (pooled ITT): rate of relapse and time to relapse
Method: “Time to relapse” in the DB period is defined as the number of days from Day 1 to the date of early trial termination due to relapse. […] Treatment differences in time to relapse in the DB period were analyzed using a Cox-regression model with treatment group and Baseline PANSS total score as covariates. For the analysis of the OL period, this analysis was repeated to analyze treatment differences in time to relapse in the study. For the OL period analysis, patients who were not observed to relapse in the study were censored on the date on which they ended the study. Kaplan-Meier plots of time to relapse in the DB period, OL period, and in the study were generated.
In some embodiments, for any of the methods disclosed herein, a relapse refers to a patient who is terminated early during treatment (or a study trial) due to worsening of psychosis or an adverse event or generalized symptom in Table 1.
The Efficacy data from Study Nos. 1 and 2 were pooled. The majority of patients in the pooled ITT population completed the DB period (502 patients overall, 66.3%), with similar rates in each treatment group (placebo: 69.8%, 32 mg Roluperidone: 65.3%, and 64 mg Roluperidone: 63.8%) (Table 12). The majority (62.7%) of those who completed the DB period entered the OL period. The most common reason for discontinuation during the DB period among patients overall was withdrawal of consent (15.6%), followed by adverse events (7.3%) and lack of efficacy (5.4%) (Table 12). […] Approximately twice as many patients in the Roluperidone groups (32 mg: 8.5%; 64 mg: 9.1%) discontinued due to adverse events compared with patients in the placebo group (4.3%). More patients in the placebo group discontinued due to lack of efficacy (6.7%) than in the Roluperidone groups (32 mg: 4.4%; 64 mg: 5.1%). The low number of patients who discontinued due to lack of efficacy or withdrawal of consent probably reflects a low level of worsening of positive symptoms.

[4] = Roluperidone Total (N = 502), DB period

1H-Isoindol-1-one,2-[ [1-[2-(4-fluorophenyl)-2-oxoethyl]-4-piperidinyl]methyl]-2,3-dihydro-, hydrochloride, hydrate (1:1:2) [Roluperidone]
Patients with QTcF prolongation >500 msec and change from Baseline in QTcF >60 msec ([1]; 32 mg): no patients | Patients with QTcF prolongation >500 msec and change from Baseline in QTcF >60 msec ([1]; 64 mg): 2 patients | Tolerability (TEAEs, SAEs) ([1]; 32 and 64 mg, up to 36 weeks of treatment): generally well tolerated | QTcF prolongation >450 msec and QTcF increases relative to baseline of ≥30 msec ([1]; Roluperidone groups): dose-dependent manner | Change in safety laboratory parameters, including prolactin [2]: no significant change | Change in vital signs, including weight and waist circumference [2]: no significant change | Incidence of TEAEs ([2]; 32 mg): 42% | Incidence of TEAEs ([2]; 64 mg): 37% | Tolerability ([2]; 32 and 64 mg): generally well tolerated | Patients who met stopping criteria due to QT prolongations ([2]; in total): 6 patients | QT prolongation ([2]; majority of clinically significant prolongations with 64 mg): Dose-related QT prolongation was observed | Patients discontinued from the study due to QT prolongations ([2]; of the 6 meeting stopping criteria): 4 patients | Patients who experienced relapse (%) ([3]; 32 mg (N = 248), DB period): 8% | Patients who experienced relapse (number) ([3]; 32 mg (N = 248), DB period): 19 | Mean number of days to relapse ([3]; 32 mg group, OL period): 234.8 days | Patients who experienced relapse (%) ([3]; 32 mg throughout, OL period): 7% | Patients who experienced relapse (number) ([3]; 32 mg throughout, OL period): 10 | Days to relapse (Kaplan-Meier estimates), Mean ([3]; 32 mg, DB period): 128.3 days | Days to relapse (Kaplan-Meier estimates), Median ([3]; 32 mg, DB period): 137.0 days | Patients who experienced relapse (%) ([3]; 64 mg (N = 254), DB period): 6% | Patients who experienced relapse (number) ([3]; 64 mg (N = 254), DB period): 16 | Mean number of days to relapse ([3]; 64 mg group, OL period): 188.1 days | Patients who experienced relapse (%) ([3]; 64 mg throughout, OL period): 8% | Patients who experienced relapse (number) ([3]; 64 mg throughout, OL period): 12 | Days to relapse (Kaplan-Meier estimates), Mean ([3]; 64 mg, DB period): 81.4 days | Patients who experienced relapse (%) [3, 4]: 7% | Patients who experienced relapse (number) [3, 4]: 35 | Days to relapse (Kaplan-Meier estimates), Mean ([3]; Roluperidone Total, DB period): 128.9 days | Days to relapse (Kaplan-Meier estimates), Median ([3]; Roluperidone Total, DB period): 137.0 days | Patients who experienced relapse (%) ([3]; placebo to 32 mg, OL period): 11% | Patients who experienced relapse (number) ([3]; placebo to 32 mg, OL period): 9 | Patients who experienced relapse (%) ([3]; placebo to 64 mg, OL period): 1% | Patients who experienced relapse (number) ([3]; placebo to 64 mg, OL period): 1 | Mean number of days to relapse ([3]; total placebo to Roluperidone group, OL period): 256.3 days
